Experiments:
[1] = tested on: rat; conditions: Subchronic oral toxicity in rodents, sprague dawley, Gavage/Intubation, dose end: 13 week, group: systemic
[2] = tested on: rat; conditions: Subchronic dermal toxicity, sprague dawley, Topical, dose end: 13 week, group: systemic
[3] = tested on: rat; conditions: Subchronic oral toxicity in rodents, other, Gavage/Intubation, dose end: 90 day, group: systemic, systemic / hematology / erythrocyte (rbc) count differential / erythrocyte (rbc) + systemic / hematology / hematocrit (hct) / hematocrit (…
[4] = systemic / pathology microscopic / stomach / infiltration cellular + systemic / pathology gross / stomach / discolored + systemic / …
[5] = systemic / pathology microscopic / stomach / infiltration cellular + systemic / pathology gross / stomach / prominent limiting ridge + …
[6] = systemic / in life observation / clinical signs / erythema + systemic / in life observation / clinical signs / body surface staining + …
[7] = systemic / in life observation / clinical signs / erythema + systemic / pathology microscopic / skin / hyperplasia + systemic / pathology …

OCCN1CN(CCO)CN(CCO)C1 [1,3,5-Triazine-1,3,5(2H,4H,6H)-triethanol]
NEL [1, 4]: 50 mg/kg/day | NOAEL [1, 4]: 50 mg/kg/day | LEL [1, 5]: 100 mg/kg/day | LOAEL [1, 5]: 100 mg/kg/day | LEL [2, 6]: 5 mg/kg/day | NEL [2, 6]: < 5 mg/kg/day | LOAEL [2, 7]: 50 mg/kg/day | NOAEL [2, 7]: 5 mg/kg/day

[Na+].[O-][Cl+2]([O-])[O-] [Sodium chlorate]
LEL [3]: 1000 mg/kg/day | LOAEL [3]: 1000 mg/kg/day | NEL [3]: 100 mg/kg/day | NOAEL [3]: 100 mg/kg/day

Reference: EPA's ToxRefDB 2
